Where “and” joins values, the source holds several entries; their conditions need not be identical. Equal values may be shown once.

The subject of one assay is Septoria tritici. As to the kind of experiment: Micro titer plate test against leaf blotch on wheat (SEPTTR). The class given is cell-based. Conditions: 0.25 ppm, 7 days after inoculation, relative to compound-free control (100%).
The subject of a further assay is Alternaria solani (wt). The class given is cell-based. To be noted: 0.016 ppm, 7 days after inoculation, relative to compound-free control (100%).
Assay [1] concerns Alternaria solani (F129L). As to the kind of experiment: Micro titer plate test against early blight (ALTESO F129L). In kind it is cell-based. To be noted: 7 days after inoculation, relative to compound-free control (100%).
The test system of the next assay is Cercospora sojina. In kind it is cell-based. Conditions: 4 ppm, 7 days after inoculation, relative to compound-free control (100%).
For assay [2], the system named is Phakopsora pachyrhizi (F129L). As to the kind of experiment: Protective control of soybean rust on soybeans (PHAKPA P6). In kind it is in vivo. To be noted: protective, inoculation six days after spraying, 16 ppm, % diseased leaf area; listed as Ex. 9.
Assay [3] concerns Phakopsora pachyrhizi (wt). Briefly: Protective control of soybean rust on detached soybean leaves (PHAKPA P1 DL), Qo inhibitor-sensitive wt isolate. In kind it is in vivo.
Assay [4] has as its system Phakopsora pachyrhizi (F129L). As to the kind of experiment: Protective control of soybean rust on detached soybean leaves (PHAKPA P1 DL), F129L isolate. The class given is in vivo.

As for `CO/N=C(/C(=O)OC)c1cccc(C)c1CO/N=C(/c1cccc(Cl)c1)C1CC1` [drawing 963], in the assay with Septoria tritici, the “Fungal growth (%) SEPTTR” value is listed as 39%. In addition, the “Fungal growth (%) ALTESO wt” value in the assay with Alternaria solani (wt) worked out at 81%. In addition, in assay [1] (0.016 ppm), the “Fungal growth (%) ALTESO F129L” value stood at 89%.
Regarding `CNC(=O)/C(=N/OC)c1cccc(C)c1CO/N=C(\SC)c1cccc(C(F)(F)F)c1`, the “Fungal growth (%) ALTESO F129L” value in assay [1] (0.016 ppm) came to 85%. For the same molecule, the “Fungal growth (%) CERCSO” value with Cercospora sojina amounted to 66%.
Take `CNC(=O)/C(=N/OC)c1cccc(C)c1CO/N=C(\OC)c1cccc(C(F)(F)F)c1` [drawing 950]: the “Fungal growth (%) CERCSO” value with Cercospora sojina is reported as 60%.
Turning to `CO/N=C(/C(=O)OC)c1cccc(C)c1CO/N=C(/c1cccc(C)c1)C1CC1` [drawing 957], the “Fungal growth (%) ALTESO wt” value in the assay on Alternaria solani (wt) is 100%. For the same molecule, in assay [1] (0.016 ppm), the “Fungal growth (%) ALTESO F129L” value turned out to be 87%. The “Fungal growth (%) CERCSO” value with Cercospora sojina stood at 87%.
Turning to `CO/N=C(/C(=O)OC)c1cccc(C)c1CO/N=C(\C)c1cccc(C(F)(F)F)c1` [compound 9], the “PHAKPA (F129L) Disease level (%) P6 at 16 ppm” value in assay [2] was 4% and 1%. In addition, the “Fungal growth (%) ALTESO wt” value with Alternaria solani (wt) is listed as 73%. In the assay on Cercospora sojina, the “Fungal growth (%) CERCSO” value is on record as 11%.
On to `CO/N=C(/C(=O)OC)c1cccc(C)c1CO/N=C(\C)c1cccc(OC(F)(F)F)c1` [drawing 940], for which, in assay [1] (4 ppm), the “Fungal growth (%) ALTESO F129L” value is recorded as 87%.
Turning to `CO/N=C(/C(=O)OC)c1cccc(C)c1CO/N=C(\SC)c1cccc(C)c1` [drawing 952], in the assay on Septoria tritici, the “Fungal growth (%) SEPTTR” value is recorded as 61%.
For the molecule `Cc1cccc(-n2nnn(C)c2=O)c1COc1ccn(-c2ccc(Cl)cc2)n1` [drawing 932, reference compound], the “PHAKPA P1 DL Disease level (%) Qo I-sensitive wt isolate (0 % F129L)” value in assay [3] (test concentration 0.3 ppm) was determined as 78%; in assay [3] (test concentration 1 ppm) it was 80%; in assay [3] (test concentration 3 ppm), 77%; in assay [3] (test concentration 10 ppm) it was 48%; in assay [3] (test concentration 30 ppm), 30%; in assay [3] (test concentration 100 ppm) it was 18%. Moreover, in assay [3] (test concentration 300 ppm), the “PHAKPA P1 DL Disease level (%) Qo I-sensitive wt isolate (0 % F129L)” value came to 5%.
`Cc1cccc(-n2nnn(C)c2=O)c1COc1ccn(-c2ccc(Cl)cc2)n1` [drawing 934, reference compound]: the “PHAKPA P1 DL Disease level (%) Qo I-resistant F129L isolate (100 % F129L)” value in assay [4] (test concentration 0.3 ppm) came out at 88%; in assay [4] (test concentration 1 ppm) it was 90%; in assay [4] (test concentration 3 ppm), 95%; in assay [4] (test concentration 10 ppm), 92%; in assay [4] (test concentration 30 ppm) it was 90%; in assay [4] (test concentration 100 ppm), 65%. Also, the “PHAKPA P1 DL Disease level (%) Qo I-resistant F129L isolate (100 % F129L)” value in assay [4] (test concentration 300 ppm) is recorded as 52%.
With `CO/N=C(/C(=O)OC)c1cccc(C)c1CO/N=C(\SC)c1cccc(C)c1` [drawing 955], the “Fungal growth (%) ALTESO wt” value with Alternaria solani (wt) is 67%. The “Fungal growth (%) ALTESO F129L” value in assay [1] (0.016 ppm) came to 66%. Further, the “Fungal growth (%) CERCSO” value in the assay with Cercospora sojina is recorded as 71%.
With `CO/N=C(/C(=O)OC)c1cccc(C)c1CO/N=C(\OC)c1cccc(C)c1`, the “Fungal growth (%) ALTESO wt” value in the assay with Alternaria solani (wt) is 93%. The “Fungal growth (%) ALTESO F129L” value in assay [1] (0.016 ppm) was 81%. In the assay with Cercospora sojina, the “Fungal growth (%) CERCSO” value amounted to 67%.
Take `CO/N=C(/C(=O)OC)c1cccc(C)c1CO/N=C(/c1cccc(Cl)c1)C1CC1` [drawing 966]: the “Fungal growth (%) CERCSO” value with Cercospora sojina amounted to 61%.
Consider `CO/N=C(/C(=O)OC)c1cccc(C)c1CO/N=C(\OC)c1cccc(C(F)(F)F)c1`, for which the “Fungal growth (%) CERCSO” value in the assay with Cercospora sojina amounted to 56%.
On to `CO/N=C(/C(=O)OC)c1cccc(C)c1CO/N=C(/c1cccc(C)c1)C1CC1` [drawing 953], for which, in the assay with Septoria tritici, the “Fungal growth (%) SEPTTR” value is reported as 89%.
With `CNC(=O)/C(=N/OC)c1cccc(C)c1CO/N=C(\SC)c1cccc(Cl)c1` [drawing 970], the “Fungal growth (%) CERCSO” value with Cercospora sojina is on record as 78%.
Regarding `CO/N=C(/C(=O)OC)c1cccc(C)c1CO/N=C(\SC)c1cccc(Cl)c1` [drawing 965], the “Fungal growth (%) CERCSO” value with Cercospora sojina is 62%.

(Values after US20230172206A1 (BASF SE, priority 2020, published 2023).)
